Measurements published in ChEMBL document CHEMBL5505990, “Novel aroyl guanidine anti-trypanosomal compounds that exert opposing effects on parasite energy metabolism” (Eur J Med Chem, 2024).
pIC50: −log10 of the molar value. Calls of active or inactive are those of the source. The rule behind the calls is not given here.

Key:
[1] = system: Trypanosoma brucei brucei; test: Anti-trypanosomal activity against Trypanosoma brucei brucei at 10 uM relative to control; type: functional
[2] = system: Trypanosoma brucei brucei; test: Disruption of nucleotide metabolism in bloodstream Trypanosoma brucei brucei 427 assessed as depletion of ATP at 1 uM incubated for 5 hrs; type: functional, organism-based
[3] = system: Trypanosoma brucei brucei; test: Disruption of nucleotide metabolism in bloodstream Trypanosoma brucei brucei 427 assessed as depletion of GTP at 1 uM incubated for 5 hrs; type: functional, organism-based
[4] = system: Trypanosoma brucei brucei; test: Disruption of nucleotide metabolism in bloodstream Trypanosoma brucei brucei 427 assessed as depletion of UTP at 1 uM incubated for 5 hrs; type: functional, organism-based
[5] = system: Trypanosoma brucei brucei; test: Disruption of nucleotide metabolism in bloodstream Trypanosoma brucei brucei 427 assessed as depletion of CTP at 1 uM incubated for 5 hrs; type: functional, organism-based
[6] = system: Trypanosoma brucei brucei; test: Disruption of nucleotide metabolism in bloodstream Trypanosoma brucei brucei 427 assessed as depletion of deoxy-ATP at 1 uM incubated for 5 hrs; type: functional, organism-based
[7] = system: Trypanosoma brucei brucei; test: Disruption of nucleotide metabolism in bloodstream Trypanosoma brucei brucei 427 assessed as depletion of deoxy-GTP at 1 uM incubated for 5 hrs; type: functional, organism-based
[8] = system: Trypanosoma brucei brucei; test: Disruption of nucleotide metabolism in bloodstream Trypanosoma brucei brucei 427 assessed as depletion of deoxy-UTP at 1 uM incubated for 5 hrs; type: functional, organism-based
[9] = system: Trypanosoma brucei brucei; test: Disruption of nucleotide metabolism in bloodstream Trypanosoma brucei brucei 427 assessed as depletion of deoxy-CTP at 1 uM incubated for 5 hrs; type: functional, organism-based
[10] = system: Trypanosoma brucei brucei; test: Disruption of nucleotide metabolism in bloodstream Trypanosoma brucei brucei 427 assessed as fold increase in AMP at 1 uM incubated for 5 hrs; type: functional
[11] = system: Trypanosoma brucei brucei; test: Induction of glycolysis in bloodstream Trypanosoma brucei brucei 427 assessed as increase in pyruvate level at 1 uM incubated for 5 hrs; type: functional
[12] = system: Trypanosoma brucei brucei; test: Induction of glycolysis in bloodstream Trypanosoma brucei brucei 427 assessed as increase in glycerol level at 1 uM incubated for 5 hrs; type: functional
[13] = system: Trypanosoma brucei brucei; test: Induction of glycolysis in bloodstream Trypanosoma brucei brucei 427 assessed as increase in succinate level at 1 uM incubated for 5 hrs; type: functional
[14] = system: Trypanosoma brucei brucei; test: Downregulation of 6-phosphogluconate level in bloodstream Trypanosoma brucei brucei 427 assessed as increase in pyruvate level at 1 uM incubated for 5 hrs; type: functional
[15] = system: Trypanosoma brucei brucei; test: Downregulation of NADPH level in bloodstream Trypanosoma brucei brucei 427 assessed as increase in pyruvate level at 1 uM incubated for 5 hrs; type: functional
[16] = system: Trypanosoma brucei brucei; test: Upregulation of carnitine to acetyl-carnitine ratio in bloodstream Trypanosoma brucei brucei 427 assessed as increase in pyruvate level at 1 uM incubated for 5 hrs; type: functional
[17] = system: Trypanosoma brucei brucei; test: Upregulation of glycolytic flux in bloodstream Trypanosoma brucei brucei 427 assessed as increase in pyruvate level at 1 uM incubated for 5 hrs; type: functional
[18] = system: Trypanosoma brucei brucei; test: Effect on free CoA level in bloodstream Trypanosoma brucei brucei 427 assessed as increase in pyruvate level at 1 uM incubated for 5 hrs; type: functional
[19] = system: Trypanosoma brucei brucei; test: Effect on free carnitine level in bloodstream Trypanosoma brucei brucei 427 assessed as increase in pyruvate level at 1 uM incubated for 5 hrs; type: functional
[20] = system: Trypanosoma brucei brucei; test: Effect on acetyl-CoA level in bloodstream Trypanosoma brucei brucei 427 assessed as increase in pyruvate level at 1 uM incubated for 5 hrs; type: functional
[21] = system: Trypanosoma brucei brucei; test: Effect on palmitoyl-CoA level in bloodstream Trypanosoma brucei brucei 427 assessed as increase in pyruvate level at 1 uM incubated for 5 hrs; type: functional
[22] = system: Trypanosoma brucei brucei; test: Effect on stearoyl-CoA level in bloodstream Trypanosoma brucei brucei 427 assessed as increase in pyruvate level at 1 uM incubated for 5 hrs; type: functional
[23] = system: Trypanosoma brucei brucei; test: Effect on acetyl-carnitine level in bloodstream Trypanosoma brucei brucei 427 assessed as increase in pyruvate level at 1 uM incubated for 5 hrs; type: functional
[24] = Selectivity ratio of IC50 for HEK293 cells to IC50 for Trypanosoma brucei brucei; type: toxicity; conditions: human, read-out: Ratio IC50
[25] = system: Trypanosoma brucei brucei; test: Anti-trypanosomal activity against Trypanosoma brucei brucei; type: functional, organism-based
[26] = Cytotoxicity against HEK293 cells; type: toxicity, cell-based; conditions: human
[27] = system: Trypanosoma brucei brucei; test: Opposing effect on metabolism in bloodstream Trypanosoma brucei brucei 427 at 1 uM incubated for 5 hrs by LC-MS based principal component analysis; type: functional, organism-based
[28] = system: Trypanosoma brucei brucei; test: Effect on nucleotide metabolism in bloodstream Trypanosoma brucei brucei 427 at 1 uM incubated for 5 hrs by pathway enrichment analysis; type: functional
[29] = system: Trypanosoma brucei brucei; test: Effect on carbohydrate metabolism in bloodstream Trypanosoma brucei brucei 427 at 1 uM incubated for 5 hrs by pathway enrichment analysis; type: functional
[30] = system: Trypanosoma brucei brucei; test: Disruption of nucleotide metabolism in bloodstream Trypanosoma brucei brucei 427 assessed as accumulation of NDP at 1 uM incubated for 5 hrs; type: functional, organism-based
[31] = system: Trypanosoma brucei brucei; test: Disruption of nucleotide metabolism in bloodstream Trypanosoma brucei brucei 427 assessed as accumulation of NMP at 1 uM incubated for 5 hrs; type: functional, organism-based
[32] = system: Trypanosoma brucei brucei; test: Disruption of nucleotide metabolism in bloodstream Trypanosoma brucei brucei 427 assessed as accumulation of nucleosides at 1 uM incubated for 5 hrs; type: functional, organism-based
[33] = system: Trypanosoma brucei brucei; test: Disruption of nucleotide metabolism in bloodstream Trypanosoma brucei brucei 427 assessed as accumulation of purine/pyrimidine base forms at 1 uM incubated for 5 hrs; type: functional, organism-based
[34] = system: Trypanosoma brucei brucei; test: Disruption of nucleotide metabolism in bloodstream Trypanosoma brucei brucei 427 assessed as depletion of NTP at 1 uM incubated for 5 hrs; type: functional, organism-based
[35] = system: Trypanosoma brucei brucei; test: Disruption of nucleotide metabolism in bloodstream Trypanosoma brucei brucei 427 assessed as accumulation of AMP at 1 uM incubated for 5 hrs; type: functional, organism-based
[36] = system: Trypanosoma brucei brucei; test: Anti-trypanosomal activity against Trypanosoma brucei brucei incubated for 48 hrs by alamar blue assay; type: functional, organism-based
[37] = Cytotoxicity against HEK293 cells assessed as inhibition of cell viability at 83 uM relative to control; type: toxicity, cell-based; conditions: human, read-out: INH
[38] = system: Trypanosoma brucei brucei; test: Anti-trypanosomal activity against Trypanosoma brucei brucei at 42 uM relative to control; type: functional
[39] = system: Trypanosoma brucei brucei; test: Disruption of nucleotide metabolism in bloodstream Trypanosoma brucei brucei 427 assessed as depletion of ATP at 1 uM incubated for 5 hrs relative to control; type: functional

Structure (SMILES) | inhibition at 10 µM [1] [%] | Activity [2] | Activity [11] | Activity [12] | Activity [13] | Activity [14] | Activity [15] | Activity [16] | Activity [17] | Activity [18] | Activity [19] | Activity [20] | Activity [21] | Activity [22] | Activity [23] | selectivity ratio [24] | Activity [30] | Activity [31] | Activity [32] | Activity [33] | other results
Cc1ccc(/N=C(\NCCN2CCOCC2)NC(=O)c2ccccc2)c(Cl)c1 | 54 | Active | Active | Active | Active | Active | Active | Active | Active | Active | Active | inactive | Active | Active | Active |  |  |  |  |  | Activity [3]: Active; Activity [4]: Active; Activity [5]: Active; Activity [6]: Active; Activity [7]: Active; Activity [8]: Active; Activity [9]: Active; fold change (FC) [10]: 7
CCc1ccccc1/N=C(\NCCN1CCOCC1)NC(=O)c1ccc(C)cc1 |  | inactive | inactive | inactive | inactive | inactive | inactive | inactive | inactive | inactive | inactive | Active | inactive | inactive | inactive | > 19 | inactive | inactive | inactive | inactive | pIC50 [25]: 5.36; pIC50 [26]: < 4.08; Activity [27]: Active; Activity [28]: Active; Activity [29]: Active; Activity [34]: inactive; Activity [35]: inactive
CCc1ccccc1/N=C(\NCCN1CCOCC1)NC(=O)c1ccccc1 |  |  | inactive | inactive | inactive | inactive | inactive | inactive | inactive | inactive | inactive | Active | inactive | inactive | inactive | ≥ 29 | inactive | inactive | inactive | inactive | pIC50 [36]: 5.59; Activity [34]: inactive
CCc1ccccc1/N=C(\NCCN1CCOCC1)NC(=O)c1cccc(Cl)c1 | 87 |  |  |  |  |  |  |  |  |  |  |  |  |  |  |  |  |  |  |  | cytotoxicity at 83 µM [37]: 67%; inhibition at 42 µM [38]: 68%
Cc1cc(Br)ccc1/N=C(\NCCN1CCOCC1)NC(=O)c1ccccc1 |  |  | Active | Active | Active | Active | Active | Active | Active | Active | Active | inactive | Active | Active | Active | > 33 | Active | Active | Active | Active | pIC50 [25]: 5.60; pIC50 [26]: < 4.08; Activity [27]: Active; Activity [28]: Active; Activity [29]: Active; Activity [3]: Active; Activity [4]: Active; Activity [5]: Active; Activity [6]: Active; Activity [7]: Active; Activity [8]: Active; Activity [9]: Active; Activity [39]: 25%
